Like-named read-outs stand apart in the source and are kept apart here.
Tests used:
[1] = system: ACHN; experiment: Mini cell panel: inhibition of proliferation of ACHN cells; format: cell-based; conditions: MTAP (-/-)
From the text: (§1) Test 9: Mini Cell Panel: Assay for Inhibitory Activity of Compounds against Proliferation of 20 Tumor Cell Lines
(§2) Materials and Cells: Fifteen MTAP(-/-) cell lines and five MTAP wild-type cell lines were purchased from ATCC (USA). Cell culture media, fetal bovine serum (FBS), and penicillin-streptomycin were purchased from Thermo Fisher Scientific (USA). 384-well plates were purchased from PerkinElmer (USA). The CellTiter-Glo assay kit was purchased from Promega (USA). Paclitaxel was used as the control compound.

[2] = system: SU-DHL-4; experiment: Mini cell panel: inhibition of proliferation of SU-DHL-4 cells; format: cell-based
From the text: as §1, §2

[3] = system: NCI-H647; experiment: Mini cell panel: inhibition of proliferation of NCI-H647 cells; format: cell-based
From the text: as §1, §2

[4] = system: SK-MEL-5; experiment: Mini cell panel: inhibition of proliferation of SK-MEL-5 cells; format: cell-based; conditions: Homo sapiens, MTAP (-/-)
From the text: as §1, §2

[5] = system: HCT-116 MTAP wild-type cells; experiment: Inhibition of proliferation of HCT-116 MTAP wild-type cells (Cell-Titer Glo); format: cell-based; conditions: 8 days
In short: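 MTAP wild-type HCT-116 cells were seeded, cultured overnight and then exposed to compound from 10,000 nM down in a 10-point, 3-fold series (0.1% DMSO). Plates were incubated 8 days at 37°C, 5% CO2. Proliferation was read by Cell-Titer Glo viability luminescence.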

[6] = system: Ht 1080; experiment: Mini cell panel: inhibition of proliferation of Ht 1080 cells; format: cell-based
From the text: as §1
as §2, with “Paclitaxel was used as the control compound.” left out

[7] = system: LU99 MTAP-overexpressing cells; experiment: Inhibition of proliferation of LU99 MTAP-overexpressing cells (CellTiter-Glo); format: cell-based; conditions: cell proliferation, 6 days
Protocol: Test 4: Assay for Inhibitory Activity of Compounds against LU99 MTAP-Overexpressing Cell Proliferation
Materials and Cells: The LU99 MTAP-overexpressing cell line was purchased from Cobioer Biosciences (China). Cell culture media and fetal bovine serum (FBS) were purchased from Thermo Fisher Scientific (USA). 384-well plates were purchased from PerkinElmer (USA). The CellTiter-Glo assay kit was purchased from Promega (USA).
Cell Culture: LU99 MTAP-overexpressing cells were cultured in a medium supplemented with 10% fetal bovine serum (FBS) at 37°C with 5% CO2. Only cells in the logarithmic growth phase were used for experiments.
Cell Proliferation Inhibition Assay: The antiproliferative activity of the compounds against LU99 MTAP-overexpressing cells was assessed using the CellTiter-Glo assay kit. Cell suspensions were adjusted to the appropriate density and seeded into 384-well plates at a volume of 40 µL per well, then incubated overnight at 37°C with 5% CO2. Compounds (40 nL) were added to each well to achieve final concentrations ranging from 0 to 10,000 nM (starting concentration 10,000 nM, 2.5-fold serial dilutions, 10 dose points), with a final DMSO concentration of 0.2%. The cell plates were incubated at 37°C with 5% CO2 for 6 days. Subsequently, 40 µL of CellTiter-Glo reagent was added to measure cell viability.

[8] = system: NCI-H838 MTAP(-/-) cells; experiment: Inhibition of proliferation of NCI-H838 MTAP(-/-) cells (CellTiter-Glo); conditions: read-out: IC50(nM) NCI-H838 MTAP(-/-)
[9] = Homo sapiens, SU-DHL-4, MTAP Wild type
[10] = Homo sapiens, NCI-H647, MTAP (-/-)
[11] = Homo sapiens, HT-1080, MTAP (-/-)

Row | Compound | IC50 ([1]; Homo sapiens, ACHN) [nM] | IC50 [2, 9] [nM] | IC50 [3, 10] [nM] | IC50 [4] [nM] | IC50 ([5]; Homo sapiens, HCT-116, 192 h) [nM] | IC50 [6, 11] [nM] | IC50 ([7]; Homo sapiens, Lu-99, 144 h) [nM] | IC50 ([8]; Homo sapiens, NCI-H838, 144 h) [nM] | IC50 [7] [nM] | IC50 [1] [nM] | IC50 ([2]; MTAP Wild type) [nM] | IC50 ([8]; cell proliferation, 6 days, CellTiter-Glo) [nM] | IC50 ([3]; MTAP (-/-)) [nM] | IC50 [5] [nM] | IC50 ([6]; MTAP (-/-)) [nM]
1 | CN(C(=O)c1cc2c(cn1)nc(N)c1cncn12)[C@@H]1COc2cc(C(F)(F)F)ccc21 [Example 4, (S)-4-amino-N-methy 1-N-(6-(trifluoromethy 1)-2,3-dihydrobenzofuran-3-yl)imidazo[1,5-a]pyrido[3,4-e]pyrazine-8-carboxamide] | 4.7 | 1260 | 16 | > 1000 | 1710 | 2.4 | – | – | – | – | – | – | – | – | –
2 | [2H]C([2H])([2H])N(C(=O)c1ccc2nc(N)c3cncn3c2c1)[C@@H]1COc2cc(C(F)(F)F)ccc21 [Example 16, (S)-4-amino-N-(methyl-d3)-N-(6-(trifluoromethyl)-2,3-dihydrobenzofuran-3-yl)imidaz o[1,5-a]quinoxaline-8-carboxamide] | – | – | – | – | 1080 | – | 2480 | 66.8 | – | – | – | – | – | – | –
3 | [2H]C([2H])([2H])N(C(=O)c1cc2c(cc1F)nc(N)c1cncn12)[C@@H]1COc2cc(C(F)(F)F)ccc21 [Example 41, (S)-4-amino-7-fluoro-N-(methyl-d3)-N-(6-(trifluoromethyl)-2,3-di hydrobenzofuran-3-yl)imidazo[1,5-a]quinox aline-8-carboxamide] | – | – | – | – | 1140 | – | 1640 | 57.6 | – | – | – | – | – | – | –
4 | CN(C(=O)c1ccc2nc(N)c3cncn3c2c1)[C@@H]1COc2cc(C(F)(F)F)ccc21 [Example 107, (S)-4-amino-N-methy 1-N-(6-(trifluoromethy 1)-2,3-dihydrobenzofuran-3-yl)imidazo[1,5-a]quinoxaline-8-carboxamide] | 2.7 | 3100 | 30 | > 1000 | 1730 | 10.4 | 2360 | 67.8 | – | – | – | – | – | – | –
5 | (S)-4-amino-7-fluoro-N-methyl-N-(6-(triflu oromethyl)-2,3-dihydr obenzofuran-3-yl)imi dazo[1,5-a]quinoxalin e-8-carboxamide [Example 29] | – | – | – | – | – | – | – | – | 1490 | 2.9 | > 10000 | 76.8 | 41.6 | 935 | 36.7

— EP4775208A1, “USE OF PRMT5 INHIBITOR IN TREATMENT OF TUMORS OR CANCERS” (Apeiron Therapeutics (Hong Kong) Ltd., priority 2023, dated 2025)
